For assay [1], the system named is rats of adenine induced kidney injury model. The assay can be described thus: Adenine-induced kidney injury. Format: in vivo, SD rats. The method, then: Adenine-induced kidney injury is an animal model of chronic kidney injury. The model was prepared as follows: 1500 mg/kg of potassium oxonate and 50 mg/kg of adenine were ground and suspended in 0.5% carboxymethylcellulose sodium (CMC-Na) solution and gavaged once a day in a volume of 10 mL/kg for 180-200 g male SD rats, and an equal dose of 0.5% CMC-Na solution was gavaged for the sham group. After 1 week of modeling, serum creatinine (Cr) was measured weekly to determine whether the model was successful or not; in this experiment, there was a statistically significant difference in serum creatinine elevation on the 21st day of modeling compared with that of the sham group, at this time, administration in group was initiated, and the shock modeling with 1500 mg/kg of potassium oxonate and 50 mg/kg of adenine was continued daily along with the administration. The test was divided into three groups according to the serum creatinine level, sham operation group (sham group, without adenine modeling and vehicle treatment by oral gavage), control group (model control group, vehicle treatment by oral gavage), and 15 mg/kg group (15 mg/kg compound I-1 by oral gavage), and the dosage was once a day in the volume of 10 ml/kg for 21 consecutive days. […] At the end of the administration, blood was collected from the heart, and the blood was centrifuged at 12000 g for 10 minutes at 4° C. after standing at room temperature for 45 minutes, and the supernatant (serum) was extracted to measure the levels of creatinine and uric acid in the serum. After euthanasia of rats at endpoint of test, rats were dissected and kidneys were taken, of which 4 kidneys were fixed with 4% paraformaldehyde for 48 h, embedded in paraffin, sectioned, and HE stained, the specific staining operation was as described above. The left kidney tissue was taken and ground, and the inflammatory factors IL-10 and TNFα were detected by Elisa method.

Assay [2] has as its system Natural Aging POF model (NA-POF). In words: Natural aging ovarian insufficiency (NA-POF). Format: in vivo, C57BL/6J mice. The settings on record: for body weight / ovarian coefficient / ovarian weight: FIG. 71; for serum E2 levels: FIG. 73. The procedure:
The Natural Aging POF model (NA-POF) simulates conditions of progressive ovarian degeneration. Female C57BL/6J mice of 9-10 months of age were purchased and raised to 12 months old, and then the mice were randomly divided into three groups, namely, the control group (Control, 0.5% CMC-Na by oral gavage, n=8), the TJ01-013-treated group (TJ01-013, 30 mg/kg TJ01-013 by oral gavage, n=8), the I-14-1 treatment group (I-14-1, 30 mg/kg I-14-1 by oral gavage, n=8), and were administered daily for 30 days. At the endpoint of the experiment, body weight, ovarian weight, ovarian organ coefficient, serum hormone E2 and FSH levels in mice were measured. The body weight and bilateral ovarian wet weight of each group of mice were weighed with an electronic balance and an analytical balance respectively, and the ovarian organ coefficient of each group of mice was calculated according to the body weight of the mice (g) and the wet weight (mg) of the bilateral ovaries. […] After the experiment reached the end point, orbital blood collection was carried out, and the blood was centrifuged at 12000 g for 10 min after standing still at room temperature for 45 min, and the supernatant (serum) was taken, and the levels of E2 and FSH in serum were detected by ELISA.

Assay [3] has as its system middle artery occlusion model in rats. The assay can be described thus: Stroke: middle cerebral artery occlusion (MCAO). The class given is in vivo, SD rats. The settings on record: for escape latency (water maze) / number of crossing over the platform (water maze) / apoptosis rate of hippocampal neurons (flow cytometry): 30 mg/kg oral gavage; for escape latency (water maze) / number of crossing over the platform (water maze): 8 weeks; for escape latency (water maze): FIG. 82; for number of crossing over the platform (water maze): FIG. 83; for apoptosis rate of hippocampal neurons (flow cytometry): FIG. 84. From the text:
7-8 weeks-old SD male rats were selected and adaptively fed for one week to establish a middle artery occlusion model in rats. After inducing anesthesia in rats using a small animal anesthesia machine, the anesthesia was immediately switched to maintenance, the rats were fixed in the supine position on the operating table, the neck in the middle and the right side of the operative part were shaved, and an incision was made in the middle of the neck after disinfection with alcohol and iodine vapors, and the carotid artery was separated along the tissues under the microscope, to avoid damaging blood vessels and nerves and to reduce the amount of hemorrhage; the electrocoagulation pen was used to cut off small arteries in the paracarotid branch and ligate the external carotid artery, and an another loose knot was played for backup; arterial clips were used to clip the proximal end of internal carotid artery and common carotid artery; the external carotid artery was cut with surgical scissors in the […], the filament was inserted carefully, and the marking point reached the bifurcation of internal and external carotid arteries, which meant that the head of the filament has already reached the middle cerebral artery; the skin was sutured, the symptoms were observed when the animal waked up, and the neurological function was evaluated; the suture line was cut open two hours after the surgery, the filament was drawn out, and ligature the remnant of external carotid artery was ligated tightly. The skin was re-sutured and attention was paid to the postoperative care of the rats. After modeling, drug administration was started in groups, which were divided into three groups: model group (model, treated with 0.5% CMC-Na by oral gavage, n=8) TJ01-013 treatment group (TJ01-013, 30 mg/kg TJ01-013 by oral gavage, n=8), and I-14-1 treatment group (I-14-1, 30 mg/kg I-14-1 by oral gavage, n=8). 8). Another normal control group (Control, 0.5% CMC-Na treatment by oral gavage, n=8) was set up, with performing the corresponding surgical operation, but no carotid artery was ligated and no filament insertion was performed, and the normal control group was administered for a total of 8 weeks, and at the end of the administration, the cognitive function of the rats was examined by using the water maze.
The night before the experiment begins, clean the laboratory and the water maze, the old water in the water maze is drained, the animal excreta should be cleaned up, and the laboratory is ventilated and free of special odor. The water maze was filled with fresh water, and the height of the water surface should be about 2 cm higher than the platform, and the four groups of rats underwent the water maze acclimatization training for 5 days. The above training was divided into a 4-day localization navigation experiment and a 1-day spatial exploration experiment. The water maze device was a circular pool, which was divided into quadrants I, II, III and IV with four equidistant points on the wall, and a circular hidden platform was placed in the center of the fourth quadrant. References were around the pool and kept unchanged, the pool and the platform were black, and black ink was poured into the water and mixed thoroughly so that the rats could not see the circular platform. The temperature of the water was kept at 22˜24° C. and the light in the room was stabilized. For each group of rats, a water maze test was performed at the end of drug administration to examine the cognitive status of the experimental animals. […] The four groups of rats underwent this training for 4 days, four times a day, two times in the morning and two times in the afternoon. At the end of each day, the experimenter thoroughly cleaned the water maze apparatus to prevent the odor of the rats in the water maze from affecting the results of the second day of the experiment. […]
In general terms: Flow cytometry measures light scatter and fluorescence of single cells or particles in a stream.

Molecules are shown by their SMILES. Values joined by “and” are separate entries in the source; they are usually repeats but may differ in a detail not shown here. Identical values can stand only once.

For `O=C(O)C[S+]([O-])c1cc(NS(=O)(=O)c2ccc(Br)cc2)c2ccccc2c1O` (stereo not shown) [I-1], in assay [1] (15 mg/kg oral gavage, 21 days, FIG. 9), the body weight entry was “no significant change”. Moreover, in assay [1] (15 mg/kg, 21 days, FIG. 12), the “TNF-α level in kidney tissues” value was “significantly decreased”. Also, the “renal histopathology (HE staining)” value in assay [1] (15 mg/kg, 21 days, FIG. 13) is “improved the histopathology of adenine-induced renal injury to some extent”. For the same molecule, in assay [1] (15 mg/kg, 21 days, P<0.05, FIG. 11), the “serum urea nitrogen level” value is listed as “significantly decreased”. Moreover, the “Serum creatinine decreased by” value in assay [1] (15 mg/kg, after 21 days, P<0.05, FIG. 10) is on record as 20.7%. Further, the “Renal lesion (number of kidneys, n = 4)” value in assay [1] (Degree of lesion + (mild lesions), 15 mg/kg) is 1/4 and 1. Besides, in assay [1] (Degree of lesion ++ (moderate lesions), 15 mg/kg), the “Renal lesion (number of kidneys, n = 4)” value is 3/4 and 3. Further, the “Renal lesion (number of kidneys, n = 4)” value in assay [1] (Degree of lesion +++ (severe lesions), 15 mg/kg) is listed as 0. Moreover, the “Renal lesion (number of kidneys, n = 4)” value in assay [1] (Degree of lesion ± (slight lesions), 15 mg/kg) came out at 0. For the same molecule, in assay [1] (Degree of lesion − (no lesions), 15 mg/kg), the “Renal lesion (number of kidneys, n = 4)” value turned out to be 0. In addition, in assay [2] (30 mg/kg daily 30 days), the body weight result is “no significant change”, the ovarian coefficient entry is reported as “significantly elevated”, the ovarian weight entry was “significantly elevated” and the “serum E2 levels” value is listed as “increased significantly”. For the same molecule, the “serum FSH level” value in assay [2] (30 mg/kg daily 30 days, FIG. 72) is “decreased significantly”. The “improvement of ovarian function, TJ0113 compared with I-14-1” value in assay [2] (both 30 mg/kg) is listed as “more effective”. Besides, in assay [3], the “escape latency (water maze)” value is “shorten the escape latency”, the “number of crossing over the platform (water maze)” value is “increased” and the “apoptosis rate of hippocampal neurons (flow cytometry)” value is “significantly reduce”. In assay [3] (per readout of the block), the “therapeutic effect of TJ01-013 compared with I-14-1” value is on record as “significantly better”.

With `O=C(O)C[S+]([O-])c1cc(NS(=O)(=O)c2ccc(C(F)(F)F)cc2)c2ccccc2c1O` (stereo not shown) [I-14-1], in assay [2] (30 mg/kg daily 30 days), the body weight entry is “no significant change”, the ovarian coefficient result was “rising trend”, the ovarian weight entry is “significantly elevated” and the “serum E2 levels” value is “increased significantly”. For the same molecule, in assay [3], the “escape latency (water maze)” value is listed as “shorten the escape latency”, the “number of crossing over the platform (water maze)” value is reported as “increased” and the “apoptosis rate of hippocampal neurons (flow cytometry)” value is listed as “significantly reduce”.

Take `O=C(O)CSc1cc(NS(=O)(=O)c2ccc(Br)cc2)c2ccccc2c1O` [UMI-77, reference compound]: the “treatment of adenine-induced renal injury compared with I-1” value in assay [1] (UMI-77 vs I-1) is “less effective”.

Source of the values: patent US20260027073A1, “USE OF SMALL-MOLECULE COMPOUND HAVING NAPHTHYLAMINE STRUCTURE” (HANGZHOU PHECDAMED CO., LTD., priority 2023, published 2026).
